Results reported in patent US20230322815A1, “NOVEL COMPOUNDS AND THERAPEUTIC USES THEREOF” (University of Huddersfield, priority 2020, published 2023).

Experiments:
[1] = test system: panel of human cancer (HT-29, DLD-1, HCT116 p53^+/+ and p53^−/−, PSN1, MiaPaCa2, BxPC3, A549, H460, GBM1) and non-cancer cell lines (ARPE-19, MCF10A, NP1); assay: Chemosensitivity of a panel of human cancer and non-cancer cell lines (MTT, 96 h); format: cell-based; conditions: cancer versus non-cancer cells
Procedure: FIG. 7. Chemosensitivity response of a panel of human cancer and non-cancer cell lines to 96 h continuous exposure to self-assembling test compounds. a, The potency of compounds tested against cancer (HT-29, DLD-1, HCT116 p53^+/+ and […], PSN1, MiaPaCa2, BxPC3, A549, H460 and GBM1) and non-cancer cells (ARPE-19, MCF10A and NP1). Each value represents the mean IC50±standard deviation from a minimum of three independent experiments. b,c, The selectivity index (SI) for [L2Cu3]^6+ (b) and [L2Zn3]^6+ (c) for the indicated cancer cell lines; SI is defined as the mean IC50 against the particular non-cancer cell line model divided by the mean IC50 against the particular cancer cell line. […] As the SI value is calculated using the mean IC50 values, experimental error is not included in these figures. d,e, IC50 values for the clinically approved platinates (cisplatin, oxaliplatin and carboplatin) and [L2Mn3]^6+ and the corresponding SI results.
All cell lines used were maintained at low passage in antibiotic-free media and were obtained from ATCC (LGC Standards, Middlesex, UK) unless otherwise stated (Methods). HT29, DLD-1, HCT116 p53^+/+ and HCT116 p53^−/− are all colorectal adenocarcinoma cell lines derived from different individuals and harbor different combinations of oncogenic lesions (except for the HCT116 isogenic cancer cell clones that are genetically identical except for p53 status). PSN-1, BxPC-3 and MiaPaCa2 are pancreatic carcinoma cell lines and A549 and H460 are lung carcinoma cell lines. HT29, DLD-1, PSN-1, BxPC-3, A549 and H460 cell lines were cultured in RPMI-1640 growth media (Sigma) containing 2 mM L-glutamine, 1 mM sodium pyruvate and 10% fetal bovine serum (FBS). HCT116 (p53^+/+ and p53^−/−) and MiaPaCa2 cell lines were cultured in Dulbecco's Modified Eagle's Medium (Sigma), 2 mM L-glutamine and 10% FBS. The ARPE-19 retinal epithelial non-cancer cell line (Dunn et al., 1996) was cultured in DMEM/F12 media (Gibco), 2 mM L-glutamine, 1 mM sodium pyruvate and 10% FBS. The MCF10A non-cancerous human breast epithelial cell line was cultured in Minimal Essential Media Eagle (Sigma), 2 mM L-glutamine, 1 mM sodium pyruvate, 10% FBS and 1×non-essential amino acids (NEAA). NP1 and GBM1 cells were cultured on plasticware coated with poly-L-ornithine (5 μg/ml) and laminin (2.4 μg/ml) (Polson et al., 2018; Da Silva et al., 2019). […]
[L2M3]^6+ and all the other self-assembling complexes were freshly formed by adding DMSO to individual components mixing together by pipetting. […] Media and MTT were removed and formazan crystals were dissolved in 150 μl of DMSO and the absorbance of the resulting solution determined at 540 nm. […]

[2] = Phosphatase activity: hydrolysis of 4-nitrophenyl phosphate; conditions: UV-Vis spectroscopy, after 24 hrs
Source text: Only [L2Zn3(PO4)]^3+ was observed, coupled with a rapid yellowing of the solution due to the formation of 4-nitrophenolate.
The rate of substrate hydrolysis is also dependent upon the metal used in the self-assembly process.

[3] = test system: HCT116 p53^−/− cancer cells; assay: Autophagy (CYTO-ID staining, confocal); format: cell-based, human; conditions: 3.125 μM, 40 h
Procedure: (§1) FIG. 17. The effects of [L2Cu3]^6+, [L2Zn3]^6+ and [L2Mn3]^6+ on cellular vacuole formation and autophagy in the HCT116 p53^−/− cancer cells. Representative confocal images are shown of HCT116 p53^−/− cancer cells following 40 h treatment with vehicle control or 3.125 μM [L2Cu3]^6+, [L2Zn3]^6+, or [L2Mn3]^6+.
(§2) Autophagy studies: The effects of 3.125 μM [L2Cu3]^6+, [L2Zn3]^6+ and [L2Mn3]^6+ treatments (40 h) on the induction of cellular vacuoles and autophagy in the HCT116 p53^−/−, HCT116 p53^+/+ and ARPE19 cells are presented in FIGS. 17-19 with representative cell images shown. […] In the ARPE19 cells, levels of autophagy were low with all treatments and similar to basal levels in control-treated cells (FIG. 19).

[4] = test system: HCT116 p53^+/+ cancer cells; assay: Autophagy (CYTO-ID staining, confocal); format: cell-based, human; conditions: 3.125 μM, 40 h
Procedure: as §1, with “18.” for “17.”, “p53^+/+” for “p53^−/−”
as §2

ARPE19 non-cancer cells = assay: Cellular ATP levels; format: cell-based, human; conditions: 100 μM, 20 h
Procedure: FIG. 20. The effects of [L2Cu3]^6+, [L2Zn3]^6+ and [L2Mn3]^6+ on cellular ATP levels in the ARPE19 non-cancer and HCT116 p53^+/+ cancer cells. The effects of 20 h treatment with the indicated concentrations of [L2Cu3]^6+, [L2Zn3]^6+, or [L2Mn3]^6+ on total cellular levels of ATP compared to levels in vehicle control-treated ARPE19 or HCT116^+/+ cells. n=3 biological repeats, students t-test (p values).
Cellular ATP studies: The effects of 20 h treatment with a range of different concentrations of [L2Cu3]^6+, [L2Zn3]^6+ and [L2Mn3]^6+ on total cellular ATP levels in HCT116 p53^+/+ and ARPE19 cells are presented in FIG. 20. Differential effects are observed depending on the metal in the complex, with [L2Mn3]^6+ having the most profound effects on both the HCT116 p53^+/+ cancer and ARPE19 non-cancer cells. 6.25 μM [L2Mn3]^6+ treatment for 20 h reduced ATP levels in the HCT116 p53^+/+ cancer cells to <50% with ATP levels declining less in the ARPE19 non-cancer cells but reaching ˜40% with 100 μM [L2Mn3]^6+ treatment. […] Effects of [L2Cu3]^6+ on ATP levels was much less, with ATP levels in the HCT116 cells reduced to <50% only at the highest concentration of 100 μM.

[Mn+2].[Mn+2].[Mn+2].c1ccc(-c2csc(NCCN(CCNc3nc(-c4ccccn4)cs3)CCNc3nc(-c4ccccn4)cs3)n2)nc1.c1ccc(-c2csc(NCCN(CCNc3nc(-c4ccccn4)cs3)CCNc3nc(-c4ccccn4)cs3)n2)nc1 [[L2Mn3]^6+]
preferential selectivity towards cancer cells [1]: ~2 fold | phosphate hydrolysed compared with the Zn^2+ species [2]: three times more phosphate | induction of autophagy [3]: most pronounced | induction of autophagy [4]: evident | ATP levels compared to vehicle control (ARPE19 non-cancer cells): ~40%
